From patent US12546780B2, “Method for identifying ubiquitin and ubiquitin-like enzyme activities” (CENTRE NATIONAL DE LA RECHERCHE SCIENTIFIQUE, priority 2019, dated 2026)

Experiments:
[1] = test system: UBC12 protein NEDDylation; assay: Bead method: NEDD8 level on UBC12 beads with HL60 cell extracts; type: cell-based; conditions: HL60 cells, 1 μM, 6 h
Method: HL60 cells were first treated with 1 μM of MLN4924, DMSO, or only with the culture medium for 6 h. Beads supporting UBC12, (NEDDylation E2 enzyme, which was previously reported to be modified by NEDD8) were contacted with said cell extracts, and NEDD8 level was assessed.
(§1) Cells grown at a 5-8.10^5/mL density were spun down (300 g) at 4° C. for 5 min and washed once with PBS. After pellet resuspension in 1 mL of PBS, they were centrifuged again (16,000 g) at 4° C. for 5 min. Pellets were resuspended and incubated at 4° C. for 30 min in a hypotonic buffer (20 mM HEPES pH 7.5, 1.5 mM MgCl2, 5 mM KCl, 1 mM DTT and 1 mg/L of aprotinine, leupeptin and pepstatin) in a volume of 25 μL per 2.10^6 cells. Cell lysis was achieved through 4 freezing/thawing cycles using liquid nitrogen and DNA was sheared owing to 10 passages through a 20-1/2 G needle. Extracts were finally centrifuged twice (16000 g) at 4° C. for 20 min and supernatants were aliquoted, flash-frozen and kept at −80° C. until use. […]
(§2) SUMO-1-, SUMO-2-, NEDD8 and Ubiquitin vinyl sulfones (0.5 μM each) were added to cellular extracts (10 μL), which were incubated at 4° C. for 15 min. […] They were then resuspended in 200 μL PBS and flow-cytometry-analysed using the LSR Fortessa device from BD Biosciences. Results were analysed using the FlowJow software.

NEDDylation of OTUD6B = assay: Bead method: NEDD8 addition on OTUD6B beads with HL60 cell extracts; type: cell-based; conditions: HL60 cells, 0-500 nM, 6 h
Method: FIG. 8 represents graphs evaluating Ubiquitin addition on beads coated with TMEM92 (1), BEAN1 (2), WBP2 (3) proteins, SUMO1 addition on beads coated with ZMYM5 (4) or NEDD8 addition on beads coated with OTUD6B (5). […] As control, cell extracts treated N-ethylmaleimide (NEM) are used (A).
ZMYM5 was used as a marker of SUMOylation, OTUD6B as a marker of NEDDylation, and TMEM92, BEAN and WBP2 as a marker of ubiquitinylation.
as §1, with “needle.” for “needle. Extracts were finally centrifuged twice (16000 g) at 4° C. for 20 min and supernatants were aliquoted, flash-frozen and kept at −80° C. until use.”
as §2

SUMOylation activity = conditions: read-out: in vitro IC50 (SUMOylation); cited from earlier work
[2] = test system: ubiquitination activity (TMEM92, BEAN1, WBP2); assay: Bead method: ubiquitination activity on TMEM92, BEAN1 or WBP2 beads with HL60 cell extracts; type: cell-based; conditions: HL60 cells, 6 h
Method: Cells extracts were prepared and contacted with beads coated with either TMEM92, BEAN1 or WBP2 proteins.
(§3) Cells grown at a 5-8.10^5/mL density were spun down (300 g) at 4° C. for 5 min and washed once with PBS. After pellet resuspension in 1 mL of PBS, they were centrifuged again (16,000 g) at 4° C. for 5 min. Pellets were resuspended and incubated at 4° C. for 30 min in a hypotonic buffer (20 mM HEPES pH 7.5, 1.5 mM MgCl2, 5 mM KCl, 1 mM DTT and 1 mg/L of aprotinine, leupeptin and pepstatin) in a volume of 25 μL per 2.10^6 cells. Cell lysis was achieved through 4 freezing/thawing cycles using liquid nitrogen and DNA was sheared owing to 10 passages through a 20-1/2 G needle. Extracts were finally centrifuged twice (16000 g) at 4° C. for 20 min and supernatants were aliquoted, flash-frozen and kept at −80° C. until use.
2.10^5 magnetic MagPlex XMap beads (low concentration) from Luminex were transferred to a low binding microtube (Eppendorf) and washed using 500 mM NaCl. They were then resuspended in 50 μL of 50 mM MES pH 6.1 and incubated in the presence of 5 mg/mL 1-ethyl-3-(3-dimethylaminopropyl) carbodiimide hydrochloride (EDC, Pierce) and 5 mg/mL Sulfo-NHS (Pierce) at room temperature for 20 min. Beads were then washed in PBS containing 500 mM NaCl and incubated with 7 μg of recombinant protein to be coupled in 100 μL PBS at room temperature for 2 hrs. They were then washed twice with PBS containing 0.1% BSA, 0.02% Tween 20, 0.05% sodium azide and 500 mM NaCland stored at 4° C. in PBS containing 0.1% BSA, 0.02% Tween-20, 0.05% sodium azide.
as §2, with “min. Control extracts were also incubated with 50 mM NEM.” for “min.”

[3] = test system: SUMOylation activity on ZMYM5 protein; assay: Bead method: SUMOylation activity on ZMYM5 with HL60 cell extracts; type: cell-based; conditions: HL60 cells, 0-500 nM, 6 h; ZMYM5 beads
Method: ZMYM5 was used as a marker of SUMOylation, OTUD6B as a marker of NEDDylation, and TMEM92, BEAN and WBP2 as a marker of ubiquitinylation. […]
as §3
2.10^5 magnetic MagPlex XMap beads (low concentration) from Luminex were transferred to a low binding microtube (Eppendorf) and washed using 500 mM NaCl. […]
as §2

[4] = test system: NEDDylation (OTUD6B protein); conditions: read-out: in vitro IC50 (NEDDylation) on OTUD6B protein; cited from earlier work

| SMILES | UBC12 protein NEDDylation [1] | effect on NEDDylation (OTUD6B beads) (NEDDylation of OTUD6B) | IC50 (SUMOylation activity) [µM] | ubiquitination activity inhibited ([2]; 10 nM or more) | TMEM92 ubiquitination inhibition ([2]; 500 nM, TMEM92 beads) | WBP2 and BEAN1 ubiquitination remaining ([2]; 500 nM, WBP2 and BEAN1 beads) | effect on SUMOylation activity [3] | IC50 [4] [µM] |
| --- | --- | --- | --- | --- | --- | --- | --- | --- |
| NS(=O)(=O)OC[C@@H]1C[C@@H](n2ccc3c(N[C@H]4CCc5ccccc54)ncnc32)CC1O (some centres unmarked) [MLN4924] | decrease | – | – | – | – | – | – | – |
| NS(=O)(=O)OC[C@H]1C[C@@H](Nc2ccnc3cc(-c4cccc(SC(F)(F)F)c4)nn23)[C@H](O)[C@@H]1O [MLN7243] | – | a decrease slightly different | 0.85 | more than 50% | maximal | residual levels | affects SUMOylation activity, but with large amounts of inhibitor | 0.028 |
